Assay results as given in US20150274719A1, “AMINO-SUBSTITUTED IMIDAZO[1,2-A]PYRIDINECARBOXAMIDES AND THEIR USE” (BAYER PHARMA AKTIENGESELLSCHAFT, priority 2012, published 2015).
Where a name gives a salt, the structure may show the parent alone.

Target: T1, recombinant guanylate cyclase reporter cell line (Rattus norvegicus, UniProt P19686+P20595)
T1 construct: expressed in transfected cells; host or cells: recombinant reporter cell line
T1 sequence (P19686 1-690): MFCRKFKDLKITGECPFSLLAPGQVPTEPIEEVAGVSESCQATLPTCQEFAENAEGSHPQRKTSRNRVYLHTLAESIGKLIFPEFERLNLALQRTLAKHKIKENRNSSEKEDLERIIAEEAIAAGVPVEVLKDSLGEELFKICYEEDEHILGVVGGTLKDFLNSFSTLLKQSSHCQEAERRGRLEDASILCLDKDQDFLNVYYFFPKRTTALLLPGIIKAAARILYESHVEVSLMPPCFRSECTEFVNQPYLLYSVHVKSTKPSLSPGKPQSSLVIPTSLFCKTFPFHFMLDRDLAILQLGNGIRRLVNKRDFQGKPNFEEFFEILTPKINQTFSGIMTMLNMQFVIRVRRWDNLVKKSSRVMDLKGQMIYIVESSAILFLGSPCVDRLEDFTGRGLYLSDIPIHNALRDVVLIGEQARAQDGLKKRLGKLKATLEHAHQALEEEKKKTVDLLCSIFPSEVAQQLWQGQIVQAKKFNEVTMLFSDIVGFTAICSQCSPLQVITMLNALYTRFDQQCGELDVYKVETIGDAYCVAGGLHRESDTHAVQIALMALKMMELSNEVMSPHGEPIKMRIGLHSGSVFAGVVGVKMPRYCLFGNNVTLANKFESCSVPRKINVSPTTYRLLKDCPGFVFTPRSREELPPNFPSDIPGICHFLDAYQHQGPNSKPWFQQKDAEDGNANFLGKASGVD
T1 sequence (P20595 1-619): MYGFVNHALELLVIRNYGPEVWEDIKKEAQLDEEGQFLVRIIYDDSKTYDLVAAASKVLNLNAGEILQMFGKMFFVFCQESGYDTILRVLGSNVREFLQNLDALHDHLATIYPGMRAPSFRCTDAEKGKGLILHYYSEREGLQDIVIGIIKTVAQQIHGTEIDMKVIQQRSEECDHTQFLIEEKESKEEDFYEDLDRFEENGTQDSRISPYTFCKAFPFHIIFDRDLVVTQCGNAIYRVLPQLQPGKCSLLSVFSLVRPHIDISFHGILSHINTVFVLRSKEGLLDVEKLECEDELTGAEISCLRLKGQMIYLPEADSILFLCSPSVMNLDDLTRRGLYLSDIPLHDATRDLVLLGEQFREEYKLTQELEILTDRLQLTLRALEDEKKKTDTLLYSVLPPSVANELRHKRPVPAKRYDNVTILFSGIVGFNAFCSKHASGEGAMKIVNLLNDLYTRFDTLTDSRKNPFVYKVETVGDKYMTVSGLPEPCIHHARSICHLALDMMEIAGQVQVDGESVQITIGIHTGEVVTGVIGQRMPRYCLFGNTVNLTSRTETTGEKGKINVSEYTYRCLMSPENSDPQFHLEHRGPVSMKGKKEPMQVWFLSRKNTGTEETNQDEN
Experiment: Action on recombinant guanylate cyclase reporter cell line
Type: cell-based
Details: in some cases mean values from individual determinations
Outline: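 Each compound is applied to a cell line engineered with a reporter for recombinant guanylate cyclase. The minimal effective concentration is then noted, in part as a mean across separate determinations.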

Structure (SMILES) | MEC (minimal effective concentration) [µM]
Cc1nc2c(OCc3c(F)cccc3F)cccn2c1C(=O)NC(C)CN (single isomer, unassigned) [Example 19, ent-N-(1-Aminopropan-2-yl)-8-[(2,6-difluorobenzyl)oxy]-2-methylimidazo[1,2-a]pyridine-3-carboxamide] | 1.66
Cc1nc2c(OCc3c(F)cccc3F)cccn2c1C(=O)NC(C)CN (single isomer, unassigned) [Example 20, ent-N-(1-Aminopropan-2-yl)-8-[(2,6-difluorobenzyl)oxy]-2-methylimidazo[1,2-a]pyridine-3-carboxamide] | 1.00
CCOCC(CN)NC(=O)c1c(C)nc2c(OCc3c(F)cccc3F)cccn12 (single isomer, unassigned) [Example 56, ent-N-(1-amino-3-ethoxypropan-2-yl)-8-[(2,6-difluorobenzyl)oxy]-2-methylimidazo[1,2-a]-pyridine-3-carboxamide] | 1.00
CCOCC(CN)NC(=O)c1c(C)nc2c(OCc3c(F)cccc3F)cc(Cl)cn12 (single isomer, unassigned) [Example 57, ent-N-(1-amino-3-ethoxypropan-2-yl)-6-chloro-8-[(2,6-difluorobenzyl)oxy]-2-methylimidazo[1,2-a]-pyridine-3-carboxamide] | 0.30
Cc1nc2c(OCc3c(F)cccc3F)cccn2c1C(=O)NC(CN)COC(C)C (single isomer, unassigned) [Example 93, ent-N-(1-Amino-3-isopropoxypropan-2-yl)-8-[(2,6-difluorobenzyl)oxy]-2-methylimidazo[1,2-a]-pyridine-3-carboxamide] | 0.30
COCC(CN)NC(=O)c1c(C)nc2c(OCc3c(F)cccc3F)cccn12 (single isomer, unassigned) [Example 122, ent-N-(1-Amino-3-methoxypropan-2-yl)-8-[(2,6-difluorobenzyl)oxy]-2-methylimidazo[1,2-a]-pyridine-3-carboxamide ditrifluoroacetate] | 1.00
COCC(CN)NC(=O)c1c(C)nc2c(OCc3c(F)cccc3F)cccn12 (single isomer, unassigned) [Example 123, ent-N-(1-Amino-3-methoxypropan-2-yl)-8-[(2,6-difluorobenzyl)oxy]-2-methylimidazo[1,2-a]-pyridine-3-carboxamide ditrifluoroacetate] | 3.00
Cc1nc2c(OCc3c(F)cccc3F)cccn2c1C(=O)NCC(N)CC(F)(F)F (single isomer, unassigned) [Example 126, ent-N-(2-Amino-4,4,4-trifluorobutyl)-8-[(2,6-difluorobenzyl)oxy]-2-methylimidazo[1,2-a]pyridine-3-carboxamide] | 0.30
Cc1nc2c(OCC3CCCCC3)cccn2c1C(=O)NC(CN)c1ccc(F)c(F)c1 (single isomer, unassigned) [Example 178, ent-N-[2-Amino-1-(3,4-difluorophenyl)ethyl]-8-(cyclohexylmethoxy)-2-methylimidazo[1,2-a]-pyridine-3-carboxamide] | 0.30
Cc1nc2c(OCC3CCCCC3)cccn2c1C(=O)NC(CN)c1ccc(F)c(F)c1 (single isomer, unassigned) [Example 179, ent-N-[2-Amino-1-(3,4-difluorophenyl)ethyl]-8-(cyclohexylmethoxy)-2-methylimidazo[1,2-a]-pyridine-3-carboxamide] | 1.00

Second part, the molecule after the results:

MEC (minimal effective concentration) [µM] | Structure (SMILES)
5.5 | Cc1cc(OCc2c(F)cccc2F)c2nc(C)c(C(=O)NCC(N)CCS(C)(=O)=O)n2c1 (racemic) [Example 413, rac-N-[2-amino-4-(methylsulfonyl)butyl]-8-[(2,6-difluorobenzyl)oxy]-2,6-dimethylimidazo[1,2-a]pyridine-3-carboxamide]
0.30 | Cc1cc(OCc2c(F)cccc2F)c2nc(C)c(C(=O)NCC3CS(=O)(=O)CCN3)n2c1 (racemic) [Example 414, rac-8-[(2,6-difluorobenzyl)oxy]-N-[(1,1-dioxidothiomorpholin-3-yl)methyl]-2,6-dimethylimidazo[1,2-a]pyridine-3-carboxamide]
5.5 | Cc1cc(OCc2c(F)cccc2F)c2nc(C)c(C(=O)NCC(N)c3csc(C)n3)n2c1 (racemic) [Example 415, rac-N-[2-amino-2-(2-methyl-1,3-thiazol-4-yl)ethyl]-8-[(2,6-difluorobenzyl)oxy]-2,6-dimethylimidazo[1,2-a]pyridine-3-carboxamide triformate]
1.00 | Cc1cc(OCc2c(F)cccc2F)c2nc(C)c(C(=O)NC(C#N)CN)n2c1 (racemic) [Example 416, rac-N-(2-amino-1-cyanoethyl)-8-[(2,6-difluorobenzyl)oxy]-2,6-dimethylimidazo[1,2-a]pyridine-3-carboxamide]
0.20 | Cc1nc2c(OCc3c(F)cccc3F)cc(Cl)cn2c1C(=O)NCC(C)N (single isomer, unassigned) [Example 29, ent-N-(2-Aminopropyl)-6-chloro-8-[(2,6-difluorobenzyl)oxy]-2-methylimidazo[1,2-a]pyridine-3-carboxamide]
0.30 | Cc1nc2c(OCc3c(F)cccc3F)cc(Cl)cn2c1C(=O)NCC(C)N (single isomer, unassigned) [Example 30, ent-N-(2-Aminopropyl)-6-chloro-8-[(2,6-difluorobenzyl)oxy]-2-methylimidazo[1,2-a]pyridine-3-carboxamide]
1.00 | Cc1nc2c(OCc3c(F)cccc3F)cccn2c1C(=O)NCC(C)CN (single isomer, unassigned) [Example 95, ent-N-(3-Amino-2-methylpropyl)-8-[(2,6-difluorobenzyl)oxy]-2-methylimidazo[1,2-a]pyridine-3-carboxamide dihydrochloride]
1.00 | Cc1nc2c(OCc3c(F)cccc3F)cccn2c1C(=O)NCC(C)CN (single isomer, unassigned) [Example 96, ent-N-(3-Amino-2-methylpropyl)-8-[(2,6-difluorobenzyl)oxy]-2-methylimidazo[1,2-a]pyridine-3-carboxamide dihydrochloride]
1.00 | Cc1nc2c(OCc3c(F)cccc3F)cccn2c1C(=O)NCC(N)CC(F)(F)F (single isomer, unassigned) [Example 127, ent-N-(2-Amino-4,4,4-trifluorobutyl)-8-[(2,6-difluorobenzyl)oxy]-2-methylimidazo[1,2-a]pyridine-3-carboxamide]
0.10 | Cc1cc(OCc2c(F)cccc2F)c2nc(C)c(C(=O)NCC(N)CC(F)(F)F)n2c1 (single isomer, unassigned) [Example 128, ent-N-(2-Amino-4,4,4-trifluorobutyl)-8-[(2,6-difluorobenzyl)oxy]-2,6-dimethylimidazo[1,2-a]-pyridine-3-carboxamide]
0.10 | Cc1cc(OCc2c(F)cccc2F)c2nc(C)c(C(=O)NCC(N)CC(F)(F)F)n2c1 (single isomer, unassigned) [Example 129, ent-N-(2-Amino-4,4,4-trifluorobutyl)-8-[(2,6-difluorobenzyl)oxy]-2,6-dimethylimidazo[1,2-a]-pyridine-3-carboxamide]
0.30 | Cc1nc2c(OCc3c(F)cccc3F)cccn2c1C(=O)NC(C)[C@H](C)N (single isomer, unassigned) [Example 174]
1.00 | Cc1nc2c(OCc3c(F)cccc3F)cccn2c1C(=O)NC(C)[C@H](C)N (single isomer, unassigned) [Example 175]
1.00 | Cc1nc2c(OCc3c(F)cccc3F)cccn2c1C(=O)NC(C)[C@@H](C)N (single isomer, unassigned) [Example 176]
1.00 | Cc1nc2c(OCc3c(F)cccc3F)cccn2c1C(=O)NC(C)[C@@H](C)N (single isomer, unassigned) [Example 177]
